Laboratory results reported in patent US20240018158A1, “BRM TARGETING COMPOUNDS AND ASSOCIATED METHODS OF USE” (Prelude Therapeutics Incorporated, priority 2020, published 2024).

Molecular target: SMARCA2 (Homo sapiens (Human), UniProt P51531)
Test: SMARCA2 HiBiT degradation assay in HEK293T cells
Assay type: cell-based
Conditions: 293T HiBiT assay, 24 h; for DC50: read-out: DC50 (SM2-293T) SMARCA2 degradation potency; for Dmax: HEK-293T, read-out: Dmax % (SM2-293T) maximum SMARCA2 degradation within the concentrations tested
Procedure: HiBiT peptide knock-in of SMARCA2 in LgBiT expressing HEK293T cells was performed by CRISPR-mediated tagging system as described Promega. The homozygous HiBiT knock-in on c-terminus SMARCA2 was confirmed by sanger sequence. SMARCA2-HiBiT knock-in Hela monoclonal cell (CS302366) and SMARCA4-HiBiT knock-in Hela monoclonal cell (CS3023226) were purchased from Promega. The heterozygous HiBiT-knock-in was confirmed by sanger sequence in both SMARCA2-HiBiT and SMARCA4-HiBiT monoclonal cells. Compounds were prepared in a low dead volume plate at 3-fold serial dilution, and then transferred 25 nL/well into a 384 well plate (Corning: #356661) by Agilent Bravo liquid dispenser. SMARCA2-HiBiT monoclonal HEK293T cells were added at 5,000/well/25 uL into the compound containing 384 well plate. After 24 h incubation, 25 uL/well of Nano-Glo HiBiT Lytic detection buffer (Promega: N3050) was added to the wells and incubate for 10 min on a shaker, centrifuged for 5 min, and then RLU was detected on a microplate reader (Envision, PerkinElmer). The RLU ratio values are normalized to percent inhibition as follows: % inhibition=((HC−LC)−(compound−LC))/(HC−LC))*100, where HC=high control=mean signal of DMSO only; LC=low control=mean signal of 100% inhibition of RLU by 1 μM PRT1001728. An 11-point dose response curve for each compound will be generated using normalized % inhibition to determine IC50 values based on the equation: Y=Bottom+((Top-Bottom)/(1+((IC50/X)^Slope))), where Y is the % inhibition in the presence of X inhibitor concentration; Top=the top plateau of the curve; Bottom=the bottom plateau of the curve; Slope=Hill coefficient; DC50=concentration of compound with 50% degradation in relation to top/high control. DC50 values were determined by using XLfit Model 205.

Sequence of SMARCA2 (P51531 whole entry): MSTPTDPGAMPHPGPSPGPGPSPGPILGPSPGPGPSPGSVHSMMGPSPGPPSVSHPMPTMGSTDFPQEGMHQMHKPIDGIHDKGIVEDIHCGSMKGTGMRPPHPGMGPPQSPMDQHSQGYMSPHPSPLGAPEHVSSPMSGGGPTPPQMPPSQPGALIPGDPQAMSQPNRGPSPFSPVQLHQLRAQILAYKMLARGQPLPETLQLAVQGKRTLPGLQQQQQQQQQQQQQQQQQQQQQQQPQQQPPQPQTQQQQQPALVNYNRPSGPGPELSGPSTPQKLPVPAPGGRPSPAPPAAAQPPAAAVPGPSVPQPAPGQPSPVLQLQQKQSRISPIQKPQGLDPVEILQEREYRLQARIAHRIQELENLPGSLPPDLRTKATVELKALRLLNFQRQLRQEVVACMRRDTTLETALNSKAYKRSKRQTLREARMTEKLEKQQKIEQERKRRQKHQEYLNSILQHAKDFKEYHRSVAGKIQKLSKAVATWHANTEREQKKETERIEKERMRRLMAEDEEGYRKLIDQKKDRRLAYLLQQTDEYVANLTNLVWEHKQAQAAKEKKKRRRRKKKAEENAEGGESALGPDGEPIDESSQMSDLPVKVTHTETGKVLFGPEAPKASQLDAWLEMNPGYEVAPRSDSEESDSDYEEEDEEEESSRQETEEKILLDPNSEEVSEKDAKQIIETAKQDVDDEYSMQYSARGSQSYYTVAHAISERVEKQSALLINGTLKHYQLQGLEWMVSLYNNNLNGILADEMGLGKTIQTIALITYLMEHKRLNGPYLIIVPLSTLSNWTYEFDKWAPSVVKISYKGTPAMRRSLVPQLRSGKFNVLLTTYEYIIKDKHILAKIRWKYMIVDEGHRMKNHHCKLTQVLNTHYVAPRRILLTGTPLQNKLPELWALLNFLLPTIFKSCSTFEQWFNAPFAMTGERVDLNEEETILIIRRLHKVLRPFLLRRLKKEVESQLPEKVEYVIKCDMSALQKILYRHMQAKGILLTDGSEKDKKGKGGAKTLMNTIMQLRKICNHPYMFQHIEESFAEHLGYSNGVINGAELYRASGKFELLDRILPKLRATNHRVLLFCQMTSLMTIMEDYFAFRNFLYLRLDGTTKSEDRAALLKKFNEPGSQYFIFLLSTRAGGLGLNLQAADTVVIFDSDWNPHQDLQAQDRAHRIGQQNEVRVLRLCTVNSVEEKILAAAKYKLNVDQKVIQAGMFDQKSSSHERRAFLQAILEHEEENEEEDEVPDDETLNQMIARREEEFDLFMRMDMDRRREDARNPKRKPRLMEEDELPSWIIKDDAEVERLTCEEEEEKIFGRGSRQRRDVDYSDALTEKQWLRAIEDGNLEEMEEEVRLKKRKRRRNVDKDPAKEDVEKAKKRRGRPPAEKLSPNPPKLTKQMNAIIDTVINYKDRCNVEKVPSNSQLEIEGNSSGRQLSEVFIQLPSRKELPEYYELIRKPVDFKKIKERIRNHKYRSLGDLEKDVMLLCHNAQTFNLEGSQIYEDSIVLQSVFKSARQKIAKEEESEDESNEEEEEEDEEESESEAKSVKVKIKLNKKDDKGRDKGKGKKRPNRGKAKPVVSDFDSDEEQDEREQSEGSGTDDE

| Compound | DC50 [nM] | Dmax [%] |
| --- | --- | --- |
| Cc1nccn1-c1ccc([C@H](C)NC(=O)[C@@H]2C[C@@H](O)CN2C(=O)[C@@H](c2cc(OCCN3CCC(CN4CCN5c6cc(-c7ccccc7O)nnc6NC[C@H]5C4)CC3)no2)C(C)C)cc1 [Example 37, (2S,4R)-4-hydroxy-1-((R)-2-(3-(2-(4-(((S)-2-(2-hydroxyphenyl)-5,6,6a,7,9,10-hexahydro-8H-pyrazino[1′,2′:4,5]pyrazino[2,3-c]pyridazin-8-yl)methyl)piperidin-1-yl)ethoxy)isoxazol-5-yl)-3-methylbutanoyl)-N-((S)-1-(4-(2-methyl-1H-imidazol-1-yl)phenyl)ethyl)pyrrolidine-2-carboxamide] | < 100 | > 75 |
| Cc1ncsc1-c1ccc([C@H](C)NC(=O)[C@@H]2C[C@@H](O)CN2C(=O)[C@@H](c2cc(CN3CCC(N4CCN5c6cc(-c7ccccc7O)nnc6NC[C@H]5C4)CC3)no2)C(C)C)cc1 [Example 39, (2S,4R)-4-hydroxy-1-((R)-2-(3-((4-((S)-2-(2-hydroxyphenyl)-5,6,6a,7,9,10-hexahydro-8H-pyrazino[1′,2′:4,5]pyrazino[2,3-c]pyridazin-8-yl)piperidin-1-yl)methyl)isoxazol-5-yl)-3-methylbutanoyl)-N-((S)-1-(4-(4-methylthiazol-5-yl)phenyl)ethyl)pyrrolidine-2-carboxamide] | < 100 | > 75 |
| COc1cc(-c2scnc2C)ccc1[C@H](C)NC(=O)[C@@H]1C[C@@H](O)CN1C(=O)[C@@H](c1cc(OCCN2CCC(CN3CCN4c5cc(-c6ccccc6O)nnc5NC[C@H]4C3)CC2)no1)C(C)C [Example 40, (2S,4R)-4-hydroxy-1-((R)-2-(3-(2-(4-(((S)-2-(2-hydroxyphenyl)-5,6,6a,7,9,10-hexahydro-8H-pyrazino[1′,2′:4,5]pyrazino[2,3-c]pyridazin-8-yl)methyl)piperidin-1-yl)ethoxy)isoxazol-5-yl)-3-methylbutanoyl)-N-((S)-1-(2-methoxy-4-(4-methylthiazol-5-yl)phenyl)ethyl)pyrrolidine-2-carboxamide] | < 100 | > 75 |
| Cc1ncsc1-c1ccc([C@H](C)NC(=O)[C@@H]2C[C@@H](O)CN2C(=O)[C@@H](c2cc(OCCN3CCC(N4CCC(N5CCN6c7cc(-c8ccccc8O)nnc7NC[C@H]6C5)CC4)CC3)no2)C(C)C)cc1 [Example 44, (2S,4R)-4-hydroxy-1-((R)-2-(3-(2-(4-((S)-2-(2-hydroxyphenyl)-5,6,6a,7,9,10-hexahydro-8H-pyrazino[1′,2′:4,5]pyrazino[2,3-c]pyridazin-8-yl)-[1,4′-bipiperidin]-1-yl)ethoxy)isoxazol-5-yl)-3-methylbutanoyl)-N-((S)-1-(4-(4-methylthiazol-5-yl)phenyl)ethyl)pyrrolidine-2-carboxamide] | < 100 | > 75 |
| Cc1ncsc1-c1ccc([C@H](C)NC(=O)[C@@H]2C[C@@H](OC(=O)C(C)C)CN2C(=O)[C@@H](c2cc(OCCN3CCC(CN4CCN5c6cc(-c7ccccc7O)nnc6NC[C@H]5C4)CC3)no2)C(C)C)cc1 [Example 52, (3R,5S)-1-((R)-2-(3-(2-(4-(((S)-2-(2-hydroxyphenyl)-5,6,6a,7,9,10-hexahydro-8H-pyrazino[1′,2′:4,5]pyrazino[2,3-c]pyridazin-8-yl)methyl)piperidin-1-yl)ethoxy)isoxazol-5-yl)-3-methylbutanoyl)-5-(((S)-1-(4-(4-methylthiazol-5-yl)phenyl)ethyl)carbamoyl)pyrrolidin-3-yl isobutyrate] | < 100 | > 75 |
| Cc1ncsc1-c1ccc([C@H](C)NC(=O)[C@@H]2C[C@@H](O)CN2C(=O)C(c2cc(COC(=O)N3CCC(N4CCN5c6cc(-c7ccccc7O)nnc6NC[C@H]5C4)CC3)no2)C(C)C)cc1 (stereo partly drawn) [Example 53, (5-(1-((2S,4R)-4-hydroxy-2-(((S)-1-(4-(4-methylthiazol-5-yl)phenyl)ethyl)carbamoyl)pyrrolidin-1-yl)-3-methyl-1-oxobutan-2-yl)isoxazol-3-yl)methyl 4-((S)-2-(2-hydroxyphenyl)-5,6,6a,7,9,10-hexahydro-8H-pyrazino[1′,2′:4,5]pyrazino[2,3-c]pyridazin-8-yl)piperidine-1-carboxylate] | < 100 | > 75 |
| Cc1ncsc1-c1ccc([C@H](C)NC(=O)[C@@H]2C[C@@H](O)CN2C(=O)[C@@H](NC(=O)COCCN2CCN3c4cc(-c5ccccc5O)nnc4NCC3C2)C(C)(C)C)cc1 (stereo partly drawn) [Example 65, (2S,4R)-4-hydroxy-1-((2S)-2-(2-(2-(2-(2-hydroxyphenyl)-5,6,6a,7,9,10-hexahydro-8H-pyrazino[1′,2′:4,5]pyrazino[2,3-c]pyridazin-8-yl)ethoxy)acetamido)-3,3-dimethylbutanoyl)-N-((S)-1-(4-(4-methylthiazol-5-yl)phenyl)ethyl)pyrrolidine-2-carboxamide] | 100 to 1000 | > 75 |
| Cc1ncsc1-c1ccc([C@H](C)NC(=O)[C@@H]2C[C@@H](O)CN2C(=O)[C@@H](NC(=O)CN2CC(N3CCN4c5cc(-c6ccccc6O)nnc5NCC4C3)C2)C(C)(C)C)cc1 (stereo partly drawn) [Example 66, (2S,4R)-4-hydroxy-1-((2S)-2-(2-(3-(2-(2-hydroxyphenyl)-5,6,6a,7,9,10-hexahydro-8H-pyrazino[1′,2′:4,5]pyrazino[2,3-c]pyridazin-8-yl)azetidin-1-yl)acetamido)-3,3-dimethylbutanoyl)-N-((S)-1-(4-(4-methylthiazol-5-yl)phenyl)ethyl)pyrrolidine-2-carboxamide] | 100 to 1000 | > 75 |

More lines, now with the values ahead:

| DC50 [nM] | Dmax [%] | Compound |
| --- | --- | --- |
| < 100 | – | Cc1ncsc1-c1ccc([C@H](C)NC(=O)[C@@H]2C[C@@H](O)CN2C(=O)[C@@H](c2cc(OC(C)CN3CCCC(CN4CCN5c6cc(-c7ccccc7O)nnc6NC[C@H]5C4)C3)no2)C(C)C)cc1 (stereo partly drawn) [Example 24, (2S,4R)-4-hydroxy-1-((2R)-2-(3-((1-(3-(((S)-2-(2-hydroxyphenyl)-5,6,6a,7,9,10-hexahydro-8H-pyrazino[1′,2′:4,5]pyrazino[2,3-c]pyridazin-8-yl)methyl)piperidin-1-yl)propan-2-yl)oxy)isoxazol-5-yl)-3-methylbutanoyl)-N-((S)-1-(4-(4-methylthiazol-5-yl)phenyl)ethyl)pyrrolidine-2-carboxamide] |
| < 100 | > 75 | Cc1ncsc1-c1ccc([C@H](C)NC(=O)[C@@H]2C[C@@H](O)CN2C(=O)C(c2cc(CN3CCC(CN4CCN5c6cc(-c7ccccc7O)nnc6NC[C@H]5C4)CC3)no2)C(C)C)cc1 (stereo partly drawn) [Example 32, (2S,4R)-4-hydroxy-1-(2-(3-((4-(((S)-2-(2-hydroxyphenyl)-5,6,6a,7,9,10-hexahydro-8H-pyrazino[1′,2′:4,5]pyrazino[2,3-c]pyridazin-8-yl)methyl)piperidin-1-yl)methyl)isoxazol-5-yl)-3-methylbutanoyl)N-((S)-1-(4-(4-methylthiazol-5-yl)phenyl)ethyl)pyrrolidine-2-carboxamide] |
| < 100 | > 75 | Cc1ncsc1-c1ccc([C@H](C)NC(=O)[C@@H]2C[C@@H](O)CN2C(=O)[C@@H](c2cc(CCCN3CCC(N4CCN5c6cc(-c7ccccc7O)nnc6NC[C@H]5C4)CC3)no2)C(C)C)cc1 [Example 33, (2S,4R)-4-hydroxy-1-((R)-2-(3-(3-(4-((S)-2-(2-hydroxyphenyl)-5,6,6a,7,9,10-hexahydro-8H-pyrazino[1′,2′:4,5]pyrazino[2,3-c]pyridazin-8-yl)piperidin-1-yl)propyl)isoxazol-5-yl)-3-methylbutanoyl)-N-((S)-1-(4-(4-methylthiazol-5-yl)phenyl)ethyl)pyrrolidine-2-carboxamide] |
| < 100 | > 75 | CC(C)[C@@H](C(=O)N1C[C@H](O)C[C@H]1C(=O)N[C@@H](C)c1ccc(C#N)cc1)c1cc(OCCN2CCC(CN3CCN4c5cc(-c6ccccc6O)nnc5NC[C@H]4C3)CC2)no1 [Example 35, (2S,4R)—N-((S)-1-(4-cyanophenyl)ethyl)-4-hydroxy-1-((R)-2-(3-(2-(4-(((S)-2-(2-hydroxyphenyl)-5,6,6a,7,9,10-hexahydro-8H-pyrazino[1′,2′:4,5]pyrazino[2,3-c]pyridazin-8-yl)methyl)piperidin-1-yl)ethoxy)isoxazol-5-yl)-3-methylbutanoyl)pyrrolidine-2-carboxamide] |
| < 100 | > 75 | Cc1ncsc1-c1ccc([C@H](C)NC(=O)[C@@H]2C[C@@H](O)CN2C(=O)[C@@H](c2cc(OCCN3CCC(CN4CCN5c6cc(-c7ccccc7O)nnc6NC[C@H]5C4)CC3)no2)C(C)C)c(F)c1 [Example 36, (2S,4R)-N-((S)-1-(2-fluoro-4-(4-methylthiazol-5-yl)phenyl)ethyl)-4-hydroxy-1-((R)-2-(3-(2-(4-(((S)-2-(2-hydroxyphenyl)-5,6,6a,7,9,10-hexahydro-8H-pyrazino[1′,2′:4,5]pyrazino[2,3-c]pyridazin-8-yl)methyl)piperidin-1-yl)ethoxy)isoxazol-5-yl)-3-methylbutanoyl)pyrrolidine-2-carboxamide] |
